pIC50: −log10 of the molar value.
Molecular target: human CSNK1D (Homo sapiens (Human), UniProt P48730)
Test: CSNK1D assay (ADP-Glo, 1 μM ATP)
Type: biochemical
Conditions: median, Table 2, read-out: CSNK1D IC50 [mol/l] (median)
Protocol: CSNK1D-inhibitory activity of compounds of the present invention in presence of 1 μM adenosine-tri-phosphate (ATP) was quantified employing the CSNK1D assay as described in the following paragraphs. In essence, the enzyme activity is measured by quantification of the adenosine-di-phosphate (ADP), which is generated as a co-product of the enzyme reaction, via the “ADP-Glo™ Kinase Assay” kit from the company Promega. This detection system works as follows: In a first step the ATP not consumed in the kinase reaction is quantitatively converted to cAMP employing an adenylate cyclase (“ADP-Glo-reagent”), then the adenylate cyclase is stopped and the ADP generated in the kinase reaction converted to ATP which generates in a luciferase-based reaction a glow-luminescence signal (“Kinase Detection Reagent”).
Recombinant fusion protein of N-terminal Glutathion-S-Transferase (GST) and full-length human CSNK1D, expressed by baculovirus infected insect cells and purified via Glutathion affinity chromatography, was purchased from Life Technologies (product no. PV3665) and used as enzyme. As substrate for the kinase reaction the biotinylated peptide Btn-Ahx-SGSEGDSESGEEEG (C-terminus in amide form) was used which can be purchased e.g. from the company Biosyntan (Berlin-Buch, Germany).
For the assay 50 nl of a 100 fold concentrated solution of the test compound in DMSO was pipetted into a white 1536-well microtiter plate (Greiner Bio-One, Frickenhausen, Germany), 2 μL of a solution of CSNK1D in aqueous assay buffer [50 mM HEPES pH 7.5, 10% (v/v) glycerol, 10 mM MgCl2, 50 mM NaCl, 1 mM dithiothreitol, 0.01% (w/v) bovine serum albumin, 0.01% (v/v) Triton X-100] were added and the mixture was incubated for 15 min at 22° C. to allow pre-binding of the test compounds to the enzyme before the start of the kinase reaction. Then the kinase reaction was started by the addition of 3 μL of a solution of ATP (1.67 μM=>final conc. in the 5 μL assay volume is 1 μM) and peptide substrate (50 μM=>final conc. in the 5 μL assay volume is 30 μM) in assay buffer and the resulting mixture was incubated for a reaction time of 30 min at 22° C. The concentration of CSNK1D was adjusted depending of the activity of the enzyme lot and was chosen appropriate to have the assay in the linear range, a typical concentration is about 0.5 ng/μL. The reaction was stopped by the addition of 2.5 μL of “ADP-Glo-reagent” (1:1.5 fold diluted with water) and the resulting mixture was incubated at 22° C. for 1 h to convert the ATP not consumed in the kinase reaction completely […]. Subsequently 2.5 μL of the “kinase detection reagent” (1.2 fold more concentrated than recommended by the producer) were added, the resulting mixture was incubated at 22° C. for 1 h and then the luminescence measured with a suitable measurement instrument (e.g. Viewlux™ from Perkin-Elmer). The amount of emitted light was taken as a measure for the amount of ADP generated and thereby for the activity of the CSNK1D.
The data were normalised (enzyme reaction without inhibitor=0% inhibition, all other assay components but no enzyme=100% inhibition).

Chain of human CSNK1D (P48730 whole entry): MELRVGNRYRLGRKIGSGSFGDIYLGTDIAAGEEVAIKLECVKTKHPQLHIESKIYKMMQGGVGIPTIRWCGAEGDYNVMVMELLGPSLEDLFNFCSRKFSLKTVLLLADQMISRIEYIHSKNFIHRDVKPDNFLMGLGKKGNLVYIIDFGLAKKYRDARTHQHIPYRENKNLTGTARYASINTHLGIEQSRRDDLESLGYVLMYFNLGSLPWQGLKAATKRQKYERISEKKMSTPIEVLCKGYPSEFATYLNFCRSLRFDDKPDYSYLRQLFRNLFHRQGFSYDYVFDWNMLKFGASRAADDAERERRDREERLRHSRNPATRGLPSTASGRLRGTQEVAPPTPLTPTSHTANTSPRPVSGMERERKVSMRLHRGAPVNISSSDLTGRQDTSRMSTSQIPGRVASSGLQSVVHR

SMILES	pIC50
CCC1CNC(=O)c2c1[nH]c(-c1ccnc(NC(=O)Cc3ccc(F)cc3)c1)c2Nc1ccccc1 (racemic) [Example 1, N-{4-[3-anilino-7-ethyl-4-oxo-4,5,6,7-tetrahydro-1H-pyrrolo[3,2-c]pyridin-2-yl]pyridin-2-yl}-2-(4-fluorophenyl)acetamide]	8.26
CCc1c[nH]c(=O)c2c(Nc3ccccc3)c(-c3ccnc(NC(=O)C(CC(F)F)c4ccc(F)cc4)c3)[nH]c12 (racemic) [Example 5, N-[4-(3-anilino-7-ethyl-4-oxo-4,5-dihydro-1H-pyrrolo[3,2-c]pyridin-2-yl)pyridin-2-yl]-4,4-difluoro-2-(4-fluorophenyl)butanamide]	8.19
CC1CN(C)C(=O)c2c1[nH]c(-c1ccnc(NC(=O)Cc3ccc(F)cc3)c1)c2Nc1ccccc1 (racemic) [Example 6, N-{4-[3-anilino-5,7-dimethyl-4-oxo-4,5,6,7-tetrahydro-1H-pyrrolo[3,2-c]pyridin-2-yl]pyridin-2-yl}-2-(4-fluorophenyl)acetamide]	8.19
CC1CN(C)C(=O)c2c1[nH]c(-c1ccnc(NC(=O)C(C)c3ccc(F)cc3)c1)c2Nc1ccccc1 (racemic) [Example 9, N-{4-[(7RS)-3-anilino-5,7-dimethyl-4-oxo-4,5,6,7-tetrahydro-1H-pyrrolo[3,2-c]pyridin-2-yl]pyridin-2-yl}-2-(4-fluorophenyl)propanamide]	7.92
Cc1cn(C)c(=O)c2c(Nc3ccccc3)c(-c3ccnc(NC(=O)C(CC(F)F)c4ccc(F)cc4)c3)[nH]c12 (racemic) [Example 11, N-[4-(3-anilino-5,7-dimethyl-4-oxo-4,5-dihydro-1H-pyrrolo[3,2-c]pyridin-2-yl)pyridin-2-yl]-4,4-difluoro-2-(4-fluorophenyl)butanamide]	7.60
CN1CC(CC(F)(F)F)c2[nH]c(-c3ccnc(NC(=O)Cc4ccc(F)cc4)c3)c(Nc3ccccc3)c2C1=O (racemic) [Example 14, N-{4-[3-anilino-5-methyl-4-oxo-7-(2,2,2-trifluoroethyl)-4,5,6,7-tetrahydro-1H-pyrrolo[3,2-c]pyridin-2-yl]pyridin-2-yl}-2-(4-fluorophenyl)acetamide]	8.29
CN1CC(CC2CC2)c2[nH]c(-c3ccnc(NC(=O)Cc4ccc(F)cc4)c3)c(Nc3ccccc3)c2C1=O (racemic) [Example 18, N-{4-[3-anilino-7-(cyclopropylmethyl)-5-methyl-4-oxo-4,5,6,7-tetrahydro-1H-pyrrolo[3,2-c]pyridin-2-yl]pyridin-2-yl}-2-(4-fluorophenyl)acetamide]	7.92
O=C1N[C@@H]2CCC[C@@H]2c2[nH]c(-c3ccnc(NC(=O)C(CC(F)F)c4ccc(F)cc4)c3)c(Nc3ccccc3)c21 (mixture of isomers) [Example 21, (2RS)—N-{4-[cis-3-anilino-4-oxo-1,4,5,5a,6,7,8,8a-octahydrocyclopenta[b]pyrrolo[2,3-d]pyridin-2-yl]pyridin-2-yl}-4,4-difluoro-2-(4-fluorophenyl)butanamide]	7.74
Cn1ccc2[nH]c(-c3ccnc(NC(=O)C(CC(F)F)c4ccc(F)cc4)c3)c(Nc3ccccc3)c2c1=O (racemic) [Example 28, N-[4-(3-anilino-5-methyl-4-oxo-4,5-dihydro-1H-pyrrolo[3,2-c]pyridin-2-yl)pyridin-2-yl]-4,4-difluoro-2-(4-fluorophenyl)butanamide]	8.09
Cc1cc2[nH]c(-c3ccnc(NC(=O)C(CC(F)F)c4ccc(F)cc4)c3)c(Nc3ccccc3F)c2c(=O)n1C (racemic) [Example 31, 4,4-difluoro-N-{4-[3-(2-fluoroanilino)-5,6-dimethyl-4-oxo-4,5-dihydro-1H-pyrrolo[3,2-c]pyridin-2-yl]pyridin-2-yl}-2-(4-fluorophenyl)butanamide]	7.49
Cc1cn(C)c(=O)c2c(Nc3ccccc3)c(-c3ccnc(NC(=O)C(C)c4ccc(F)cc4)c3)[nH]c12 (racemic) [Example 39, N-[4-(3-anilino-5,7-dimethyl-4-oxo-4,5-dihydro-1H-pyrrolo[3,2-c]pyridin-2-yl)pyridin-2-yl]-2-(4-fluorophenyl)propanamide]	7.25
CN1CC(CC(F)F)c2[nH]c(-c3ccnc(NC(=O)Cc4ccc(F)cc4)c3)c(Nc3ccccc3)c2C1=O (racemic) [Example 42, N-{4-[3-anilino-7-(2,2-difluoroethyl)-5-methyl-4-oxo-4,5,6,7-tetrahydro-1H-pyrrolo[3,2-c]pyridin-2-yl]pyridin-2-yl}-2-(4-fluorophenyl)acetamide]	8.39
CN1CC(CC(F)(F)F)c2[nH]c(-c3ccnc(NC(=O)Cc4ccc(F)cc4)c3)c(Nc3cscn3)c2C1=O (racemic) [Example 46, 2-(4-fluorophenyl)-N-{4-[(7RS)-5-methyl-4-oxo-3-(1,3-thiazol-4-ylamino)-7-(2,2,2-trifluoroethyl)-4,5,6,7-tetrahydro-1H-pyrrolo[3,2-c]pyridin-2-yl]pyridin-2-yl}acetamide]	7.14
CN1CC(CC2CC2)c2[nH]c(-c3ccnc(NC(=O)Cc4ccc(F)cc4)c3)c(Nc3cscn3)c2C1=O (racemic) [Example 49, N-{4-[(7RS)-7-(cyclopropylmethyl)-5-methyl-4-oxo-3-(1,3-thiazol-4-ylamino)-4,5,6,7-tetrahydro-1H-pyrrolo[3,2-c]pyridin-2-yl]pyridin-2-yl}-2-(4-fluorophenyl)acetamide]	7.85
CN1CC(CC(F)(F)F)c2[nH]c(-c3ccnc(NC(=O)C(CC(F)F)c4ccc(F)cc4)c3)c(Nc3cscn3)c2C1=O (racemic) [Example 52, (2RS)-4,4-difluoro-2-(4-fluorophenyl)-N-{4-[(7RS)-5-methyl-4-oxo-3-[(1,3-thiazol-4-yl)amino]-7-(2,2,2-trifluoroethyl)-4,5,6,7-tetrahydro-1H-pyrrolo[3,2-c]pyridin-2-yl]pyridin-2-yl}butanamide]	7.92
CCC1CNC(=O)c2c1[nH]c(-c1ccnc(NC(=O)Cc3ccc(F)cc3)c1)c2Nc1ccccc1 (single isomer, unassigned) [Example 2, N-{4-[3-anilino-7-ethyl-4-oxo-4,5,6,7-tetrahydro-1H-pyrrolo[3,2-c]pyridin-2-yl]pyridin-2-yl}-2-(4-fluorophenyl)acetamide]	8.28
CCC1CNC(=O)c2c1[nH]c(-c1ccnc(NC(=O)Cc3ccc(F)cc3)c1)c2Nc1ccccc1 (single isomer, unassigned) [Example 3, N-{4-[3-anilino-7-ethyl-4-oxo-4,5,6,7-tetrahydro-1H-pyrrolo[3,2-c]pyridin-2-yl]pyridin-2-yl}-2-(4-fluorophenyl)acetamide]	8.00
Cc1cn(C)c(=O)c2c(Nc3ccccc3)c(-c3ccnc(NC(=O)C(CC(F)F)c4ccc(F)cc4)c3)[nH]c12 (single isomer, unassigned) [Example 12, N-[4-(3-anilino-5,7-dimethyl-4-oxo-4,5-dihydro-1H-pyrrolo[3,2-c]pyridin-2-yl)pyridin-2-yl]-4,4-difluoro-2-(4-fluorophenyl)butanamide]	6.80
Cc1cn(C)c(=O)c2c(Nc3ccccc3)c(-c3ccnc(NC(=O)C(CC(F)F)c4ccc(F)cc4)c3)[nH]c12 (single isomer, unassigned) [Example 13, N-[4-(3-anilino-5,7-dimethyl-4-oxo-4,5-dihydro-1H-pyrrolo[3,2-c]pyridin-2-yl)pyridin-2-yl]-4,4-difluoro-2-(4-fluorophenyl)butanamide]	7.66

— US20230365554A1, “SUBSTITUTED PYRROLO-PYRIDINONE DERIVATIVES AND THERAPEUTIC USES THEREOF” (The Broad Institute, Inc., priority 2020, published 2023)
